In US10183913B2, “Pyrazole compound” (Sumitomo Dainippon Pharma Co., Ltd., priority 2010, dated 2019):
Structures can show the parent of a compound that is named as a salt. Where two headings read alike, the source gives them in different places.

Assays:
[1] = target: human serotonin transporter (h-SERT) (Homo sapiens (Human), UniProt P31645); experiment: [3H] citalopram binding assay to evaluate human serotonin reuptake inhibitory action (h-SERT binding assay)
Description: Citalopram Binding Assay to Evaluate Human Serotonin Reuptake Inhibitory Action
(§1) Preparation of the Cells and Membrane Preparations
In the experiment, human serotonin transporter (h-SERT) was expressed in CHO cells (h-SERT/CHO). The cells were incubated with F12 containing 10% FCS, 500 μg/mL Geneticin and 100 U/mL penicillin—100 μg/mL streptmycin (all manufactured by Sigma Aldrich) in an incubator containing 5% CO2; detached and collected using a SERT buffer [50 mmol/L Tris-HCl comprising 120 mmol/L NaCl and 5 mmol/L KCl (pH=7.4)]; homogenized with a homogenizer manufactured by Teflon (trademark); and then centrifuged (50,000×g, 30 min, 4° C.). The precipitate was suspended again in the appropriate amount of SERT buffer (to give a membrane preparation), and stored at −80° C. until used. The amount of protein in the membrane preparation was assayed by Dye Reagent Concentrate (manufactured by BIO-RAD) using bovine serum albumin (manufactured by Sigma Aldrich) as a standard.
1-2. h-SERT Binding Assay
The [^3H] citalopram binding was measured according to the method disclosed in Owens M. J. et al., J. Pharm. […] The solution was reacted at room temperature for 60 minutes, and then quickly suction-filtered under reduced pressure through a glass fiber filter coated with 0.05% aq. polyethyleneimine. The glass fiber filter was washed twice with […] of the SERT buffer, placed in a plastic vial containing 4 mL of liquid scintillator (ACS-II, manufactured by Amersham) or Ecoscint A (manufactured by National Diagnostics), and the remaining radioactivity on the filter paper was assayed with a liquid scintillation counter.

[2] = target: T1, human serotonin 2C receptor (h-5-HT2C) (Homo sapiens (Human), UniProt P28335); experiment: [3H] mesulergine binding assay to evaluate affinity for human 5-HT2C receptor; settings: h-5-HT2C/CHO membrane preparation, read-out: Test Ex. 2: 5-HT2C receptor binding inhibition constant Ki
Description: Mesulergine Binding Assay to Evaluate Affinity for Human 5-HT2C Receptor
as §1
In the experiment, human serotonin 2C receptor (h-5-HT2C) was expressed in CHO cells (h-5-HT2C/CHO). The cells were incubated with UltraCHO Lipuid (trademark) (manufactured by BioWhitakker) containing 1% FBS, 400 μg/mL Geneticin, 100 U/mL penicillin—100 μg/mL streptomycin (all manufactured by Sigma Aldrich) and 250 μg/mL Zeosin (manufactured by InvivoGen) in an incubator containing 5% CO2; detached and collected using 50 mmol/L Tris-HCl (pH=7.4); homogenized with a homogenizer manufactured by Teflon (trademark); and then centrifuged (48,000×g, 25 min, 4° C.). The precipitate was suspended again in the appropriate amount of 50 mmol/L Tris-HCl (to give a membrane preparation), and stored at −80° C. until used. The amount of protein in the membrane preparation was assayed by Dye Reagent Concentrate (manufactured by BIO-RAD) using bovine serum albumin (manufactured by Sigma Aldrich) as a standard.
2-2. 5-HT2C Receptor Binding Assay
A solution of 200 μL in total was prepared by mixing 50 μL of [^3H] mesulergine (manufactured by GE Healthcare) diluted with 50 mmol/L Tris-HCl (pH=7.4) (final concentration: about 2 nmol/L), 149 μL of the h-5-HT2C/CHO membrane preparation (protein amount: 20 μg/well), and 1 μL of the test drug dissolved in dimethylsulfoxide. The solution was reacted at 37° C. for 30 minutes, and then quickly suction-filtered under reduced pressure through a glass fiber filter coated with 1% aq. bovine serum albumin. The glass fiber filter was washed twice with 250 μL of 50 mmol/L Tris-HCl (pH=7.4), placed in a plastic vial containing 4 mL of liquid scintillator (ACS-II, manufactured by Amersham) or Ecoscint A (manufactured by National Diagnostics), and the remaining radioactivity on the filter paper was assayed with a liquid scintillation counter. The non-specific binding of [^3H] mesulergine was defined as a binding amount in the presence of 10 μmol/L SB206553 (manufactured by Sigma Aldrich). The IC50 value was calculated according to Hill analysis, and the binding inhibition constant (Ki) was calculated according to the following formula: Binding inhibition constant (Ki)=IC50/(1+S/Kd) wherein S is a concentration of the added [^3H] mesulergine, and Kd is a binding dissociation constant of [^3H] mesulergine which was calculated from a saturated binding assay using the same cell membrane.

[3] = target: T1, human serotonin 2C receptor (h-5-HT2C); experiment: 5-HT2C receptor agonistic action assay (FLIPR Calcium 4 Assay kit, h-5-HT2C/CHO cells); assay type: cell-based; settings: test material 10 μmol/L; 100% = 10 μmol/L 5-HT, −100% = 10 μmol/L SB206553; below 0% = inverse agonistic action
Description: 3-1. The Cells and Inoculation Thereof
In the experiment, human serotonin 2C receptor (h-5-HT2C) was expressed in CHO cells (h-5-HT2C/CHO). The cells were incubated with UltraCHO Lipuid (trademark) (manufactured by BioWhitakker) containing 1% FBS, 400 μg/mL Geneticin, 100 U/mL penicillin—100 μg/mL streptomycin (all manufactured by Sigma Aldrich) and 250 μg/mL Zeosin (manufactured by InvivoGen) in an incubator containing 5% CO2. On the day before using the cells, they were detached and collected using 250 μg/mL Trypsin solution (manufactured by Nacalai Tesque), then inoculated in a 96 well flat clear bottom black polystyrene TC-treated microplates (manufactured by Corning) at 40000 cells/well/60 μL in an incubator containing 5% CO2 for 16 hours to 24 hours.
3-2. 5-HT2C Receptor Agonistic Action Assay
The 5-HT2C receptor agonistic action was evaluated with FLIPR Calcium 4 Assay kit (manufactured by Molecular Devices). In specific, to the cells inoculated in the plate were added Component A of FLIPR Calcium 4 Assay kit dissolved in 100 mL of HHBP buffer (1×Hanks buffer, 20 mmol/L HEPES, both manufactured by Gibco) at an amount of 40 μL/well, and the cells were incubated in an incubator containing 5% CO2 for 1 hour. Then, the cells were set in FLIPR TETRA (trademark) (manufactured by Molecular Devices), to the cells was added the test material diluted with HHBP buffer, 2.5 mmol/L Probenecid (manufactured by Sigma) (concentration after dilution: 10 μmol/L) at an amount of 20 μL/well, and the fluorescence was measured. Then, in order to evaluate the antagonistic action of the test material, 20 μL/well of 5-HT solution (manufactured by Sigma, final concentration: 0.1 nmol/L) was further added to the cells, and the fluorescence was measured.
The 5-HT2C receptor agonistic action of each test material was calculated as a rate of fluorescence enhancement wherein 100% was defined as a value when the cells were given 10 μmol/L 5-HT. Furthermore, the 5-HT2C receptor inverse agonistic action was calculated as a rate of fluorescence decay wherein −100% was defined as a value when the cells were given 10 μmol/L SB206553 (manufactured by Sigma Aldrich). A lower value of the 5-HT2C receptor agonistic action of the test material means that the material has a higher antagonistic action. In particular, when the value of the 5-HT2C receptor agonistic action of the test material is below 0%, the material has an inverse agonistic action for 5-HT2C receptor.

[4] = [3H] citalopram binding, read-out: Test Ex. 1: h-SERT binding inhibition constant Ki

T1 sequence (P28335 whole entry, looked up): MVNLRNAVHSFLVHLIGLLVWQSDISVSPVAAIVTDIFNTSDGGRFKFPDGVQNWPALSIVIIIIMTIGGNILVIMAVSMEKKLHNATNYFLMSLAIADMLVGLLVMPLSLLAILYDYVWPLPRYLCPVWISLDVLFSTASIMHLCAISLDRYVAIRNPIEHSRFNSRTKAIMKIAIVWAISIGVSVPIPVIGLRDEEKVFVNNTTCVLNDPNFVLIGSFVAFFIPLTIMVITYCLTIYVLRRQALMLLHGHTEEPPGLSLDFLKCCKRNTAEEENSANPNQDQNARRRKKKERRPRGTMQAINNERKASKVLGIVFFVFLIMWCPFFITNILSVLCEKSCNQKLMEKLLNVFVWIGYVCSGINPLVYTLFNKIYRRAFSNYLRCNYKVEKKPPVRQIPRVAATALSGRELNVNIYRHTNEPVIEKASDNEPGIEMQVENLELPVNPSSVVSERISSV

Row | Structure (SMILES) | Ki [1] | Ki [2] | Test Ex. 3: 5-HT2C receptor agonistic action [3] | Ki [1, 4]
1 | CNCc1nn(CC2CCCCC2)c(OCc2cc(F)ccc2F)c1F.Cl [Example 351, 1-{1-(Cyclohexylmethyl)-5-[(2,5-difluorobenzyl)oxy]-4-fluoro-1H-pyrazol-3-yl}-N-methylmethanamine hydrochloride] | 0.98 nM | 43 nM | – | –
2 | CNCc1cc(OCc2cc(Cl)ccc2F)n(CC(C)C)n1 [Example 256, 1-{5-[(5-chloro-2-fluorobenzyl)oxy]-1-(2-methylpropyl)-1H-pyrazol-3-yl}-N-methylmethanamine] | – | – | −97% | –
3 | CNCc1cc(OCc2cc(F)ccc2F)n(Cc2ccc(F)cc2)n1 [Example 219, 1-{5-[(2,5-difluorobenzyl)oxy]-1-(4-fluorobenzyl)-1H-pyrazol-3-yl}-N-methylmethanamine] | – | 10 nM | – | 1.6 nM
4 | CNCc1cc(OCc2cc(Cl)ccc2F)n(CC2CCCCO2)n1.Cl (single isomer, unassigned; (+)) [Example 475, (+)-1-{5-[(5-chloro-2-fluorobenzyl)oxy]-1-(tetrahydro-2H-pyran-2-ylmethyl)-1H-pyrazol-3-yl}-N-methylmethanamine] | – | – | −95% | –
5 | CNCc1cc(OCc2ccccc2F)n(CCC(C)C)n1 [Example 381, 1-{5-[(2-fluorobenzyl)oxy]-1-(3-methylbutyl)-1H-pyrazol-3-yl}-N-methylmethanamine] | – | 10 nM | – | 3.4 nM
6 | CNCc1cc(OCc2ccc(F)cc2C)n(CC2CCCCC2)n1 [Example 31, 1-{1-(Cyclohexylmethyl)-5-[(4-fluoro-2-methylbenzyl)oxy]-1H-pyrazol-3-yl}-N-methylmethanamine] | – | 5.2 nM | – | 0.92 nM
7 | CNCc1cc(OCc2ccccc2)n(CCC2CCCC2)n1 [Example 192, 1-[5-(Benzyloxy)-1-(2-cyclopentylethyl)-1H-pyrazol-3-yl]-N-methylmethanamine] | – | 3.9 nM | – | 0.91 nM
8 | CNCc1cc(OCc2cc(Cl)ccc2F)n(CC2CCCC2)n1 [Example 148, 1-{5-[(5-chloro-2-fluorobenzyl)oxy]-1-(cyclopentylmethyl)-1H-pyrazol-3-yl}-N-methylmethanamine] | – | 1.9 nM | – | 4.6 nM
9 | CNCc1cc(OCc2cc(Cl)ccc2F)n(CC2(C(F)(F)F)CCCC2)n1 [Example 448, 1-(5-[(5-chloro-2-fluorobenzyl)oxy]-1-{[1-(trifluoro-methyl)cyclopentyl]methyl}-1H-pyrazol-3-yl)-N-methylmethanamine] | – | 8.8 nM | – | 3.8 nM
10 | CNCc1cc(OCc2cc(F)ccc2F)n(CC2CCCC2)n1 [Example 147, 1-{1-(cyclopentylmethyl)-5-[(2,5-difluorobenzyl)oxy]-1H-pyrazol-3-yl}-N-methylmethanamine] | – | 4.8 nM | – | 0.71 nM
11 | CNCc1cc(OCc2cc(F)c(F)cc2F)n(Cc2ccc(C)cc2)n1 [Example 286, N-methyl-1-{1-(4-methylbenzyl)-5-[(2,4,5-trifluoro-benzyl)oxy]-1H-pyrazol-3-yl}methanamine] | – | 6.6 nM | – | 5.5 nM
12 | CNCc1cc(OCc2ccccc2)n(Cc2ccccc2)n1 [Example 1, 1-[1-Benzyl-5-(benzyloxy)-1H-pyrazol-3-yl]-N-methylmethanamine hydrochloride] | – | 26 nM | – | 4.9 nM
13 | CNCc1cc(OCc2cc(F)ccc2F)n(CC2(C(F)(F)F)CCCC2)n1 [Example 447, 1-(5-[(2,5-difluorobenzyl)oxy]-1-{[1-(trifluoro-methyl)cyclopentyl]methyl}-1H-pyrazol-3-yl)-N-methylmethanamine] | – | 13 nM | – | 0.5 nM
14 | CNCc1cc(OCc2cc(F)c(F)cc2F)n(CCC(C)(C)C)n1 [Example 284, 1-{1-(3,3-dimethylbutyl)-5-[(2,4,5-trifluorobenzyl)-oxy]-1H-pyrazol-3-yl}-N-methylmethanamine] | – | 7.9 nM | – | 5.7 nM
15 | CNCc1cc(OCc2cc(F)ccc2F)n(Cc2ccc(C)cc2)n1 [Example 230, 1-{5-[(2,5-difluorobenzyl)oxy]-1-(4-methylbenzyl)-1H-pyrazol-3-yl}-N-methylmethanamine] | – | 4.9 nM | – | 2.3 nM
16 | Fc1ccc(F)c(COc2cc(CNC3CC3)nn2CC2CCCCC2)c1 [Example 342, N-({1-(Cyclohexylmethyl)-5-[(2,5-difluorobenzyl)oxy]-1H-pyrazol-3-yl}methyl)cyclopropanamine] | – | 14 nM | – | 8.5 nM
17 | CNCc1cc(OCc2ccc(F)cc2)n(CC2CCCC2)n1 [Example 137, 1-{1-(cyclopentylmethyl)-5-[(4-fluorobenzyl)oxy]-1H-pyrazol-3-yl}-N-methylmethanamine] | – | 7.9 nM | – | 6.6 nM
18 | CNCc1cc(OCc2cc(F)c(F)cc2F)n(CC2CCCC2)n1 [Example 280, 1-{1-(cyclopentylmethyl)-5-[(2,4,5-trifluorobenzyl)-oxy]-1H-pyrazol-3-yl}-N-methylmethanamine] | – | 9.7 nM | – | 1.9 nM
19 | CNCc1cc(OCc2ccc(F)cc2)n(CC2(C(F)(F)F)CCCC2)n1 [Example 446, 1-(5-[(4-fluorobenzyl)oxy]-1-{[1-(trifluoromethyl)-cyclopentyl]methyl}-1H-pyrazol-3-yl)-N-methylmethanamine] | – | 19 nM | – | 7.4 nM
